According to patent US11951085B2, “Methods of treating injuries or conditions related to CNS edema” (BIOGEN CHESAPEAKE LLC, priority 2015, dated 2024):

Tests used:
Format in all cases: in vivo, human
[1] = system: subjects with Large Hemispheric Infarction (brain lesions of 82 cc to 300 cc); assay: Randomized double blind placebo controlled study in Large Hemispheric Infarction: clinical outcomes (mortality, mRS, Barthel Index, EQ-5D); parameters: median mRS / EQ-5D Median Difference: scale not given here; details: for Difference in 90 Day Score of mRS 0-4: Test Drug Group versus Placebo Group
Procedure: (§1) In order to determine the efficacy of SUR1-TRPM4 channel inhibitors for reducing or treating neurological conditions associated with cell swelling and CNS or cerebral edema, a randomized double blind placebo controlled clinical study was conducted. […] Within the “per protocol” group, 77 patients who were confirmed centrally to have brain lesions from 82 cc to 300 cc. Forty one of subjects were administered the test drug and 36 subjects were administered the placebo. The administration of the test drug was as follows: a bolus of 0.13 mg of the SUR1-TRPM4 channel inhibitor was administered over approximately 2 minutes followed by a continuous infusion of 0.16 mg/hr for 6 hours, and then a continuous infusion of 0.11 mg/hr for 66 hours, for a total dosing period of 72 hours. The total daily dose of Study Drug on Day 1, Day 2 and Day 3 was 3.12 mg, 2.67 mg, and 2.67 mg, respectively.
The incidence of mortality in the individuals was recorded at both 30 and 90 days following treatment. The Reduction in Mortality as a result of administration of the SUR1-TRPM4 channel inhibitor is shown in Table 2 below, and graphed in FIG. 1.
Additional mortality data was collected as it related to drug and placebo treatment with and without a Decompressive Craniectomy (DC). Essentially, the incidence of mortality was recorded for study participants that passed away following a DC prior to the end of the study period. The incidence of mortality when a DC occurred compared to no DC is shown in Table 3 below, and graphed in FIG. 2.
The subjects in this study were also tested using the modified Rankin Scale (mRS). One way to assess outcome in large strokes, such as those studied, is to determine the percentage of patients in each group who have a mRS of 0-4 at 90 days after stroke. The results of the 90 day mRS study is shown in Table 4 below, and graphed in FIG. 3.
The Barthel Index is another functional outcome that can be used to assess outcome of stroke patients. The subjects of the study were also scored using the Barthel index both initially and again at about 90 days. The degree of improvement in the Barthel index scores are shown in Table 5 below and graphed in FIG. 4.
Mortality can be multifactorial and may depend on factors such as preexisting comorbidities and risk factors. […] Specifically, cause of death was adjudicated by three adjudicators blinded to study drug group. Imaging and clinical data were used to determine, among other outcomes, cause of death. […] Consistent with our proposed mechanism of action, mortality attributable to edema was the driver behind reductions in overall mortality.
The magnitude of difference between placebo and treatment arms on the mRS as an ordinal scale is frequently measured using the Mann-Whitney test and a common odds ratio (OR) may be derived using the proportional odds methodology to explore effect size. In accordance with this, a common OR of 1.2 represents a clinically meaningful difference. The OR for effect size in patients ≤70 in the per-protocol population was 2.49, which represents a substantial clinical effect.
The Barthel Index (BI) is a measure of activities of daily living. It has been widely used and accepted in stroke trials and is one of the more prevalent scales used in acute stroke. In one example, a minimum clinically important change that is beyond measurement error is about 20 points on the 100-point scale, which was used as a benchmark in this study. The median delta or differences seen in the ≤70 per-protocol population at 90 days, 6 months, and 12 months between drug and placebo were 35, 27.5, and 45, respectively, all exceeding the accepted threshold. A common interpretation of the BI considers a score of ≤40 to be a clearly bad outcome, whereas a score of ≥60 is a clearly good outcome.
The EuroQol-5D (EQ-5D) is a generic instrument used to assess quality of life in a variety of conditions, including stroke. […]

[2] = system: MMP-9; assay: Large Hemispheric Infarction study: MMP-9 values in blood samples; details: blood samples at 24 hours and at 72 hours, averaged
Procedure: as §1
Additionally, MMP-9 values based in blood samples were taken at 24 hours and at 72 hours for the study participants and then averaged. MMP-9 levels are known to rise after stroke and are believed to represent blood brain barrier dysfunction. The MMP-9 average values are shown in Table 8 below, and graphed in FIG. 7.

[3] = Large Hemispheric Infarction study: blood glucose monitoring; details: one patient, receiving 10 wt % dextrose solution; infusion rate reduced by 30% and glucose stabilized
Procedure: as §1
a) During the Double Blind Placebo Controlled Study, there was a lab confirmed blood glucose level that dropped to 51 mg/dL which was recorded for one of the patients who was receiving a 10 wt % dextrose solution.

[4] = system: subjects with TBI having lesional blood (contusion); assay: Randomized double blind placebo controlled study in Traumatic Brain Injury (MRI edema, GOSE)
Procedure: The administration of the test drug was as follows: a bolus of 0.13 mg of the SUR1-TRPM4 channel inhibitor was administered over approximately 2 minutes followed by a continuous infusion of 0.16 mg/hr for 6 hours, and then a continuous infusion of 0.11 mg/hr for 66 hours, for a total dosing period of 72 hours. The total daily dose of Study Drug on Day 1, Day 2 and Day 3 was 3.12 mg, 2.67 mg, and 2.67 mg, respectively. All subjects were assessed by MRI scans at baseline and 72 hours.
The 14 subjects (7 drug and 7 placebo) identified as having evidence of lesional blood (i.e., blood associated with a contusion) at baseline and having MRI scans at both baseline and 72 hours were assessed for edema using MIM software version 5.6. Blinded readers ascertained x, y, z measurements of the total apparent contusion using T2 images, unless missing, in which case, DTI images were used. Only contusions that could be reliably measured (measuring at least about 1 cc) were measured. Readers also ascertained the volume measurements of hemorrhages in a similar manner using SWI images. Linear measurements were captured in centimeters (cm) and all volumes in cubic centimeters (cc). Volumes were calculated using the ABC/2 standard. The volume of apparent edema was calculated as the difference between the overall apparent contusion volume and the volume of the hemorrhage. For analysis, if there were multiple lesions, the volumes of all lesions meeting the threshold were combined.

[5] = Full per-protocol population, 6 Months
[6] = Full per-protocol population, 12 Months
[7] = PP ≤ 9 hr (drug in 9 hours or less), N 33 (14/19)
[8] = patients ≤70, per-protocol population
[9] = ≤70 per-protocol population, 6 Months
[10] = ≤70 per-protocol population, 12 Months
[11] = ≤70 per-protocol population, Day 90

COc1ccc(Cl)cc1C(=O)NCCc1ccc(S(=O)(=O)NC(=O)NC2CCCCC2)cc1 [glyburide]
% Death 30 days ([1]; 41 individuals, per protocol): 14.6% | % Death 90 days ([1]; 41 individuals, per protocol): 17.1% | EQ-5D Median Difference [1, 5]: 0.34 | Survival OR [1, 5]: 2.63 | mRS OR [1, 5]: 1.88 | EQ-5D Median Difference [1, 6]: 0.14 | Survival OR [1, 6]: 2.54 | mRS OR [1, 6]: 1.64 | EQ-5D Median Difference ([1]; Full per-protocol population, 90 Days, drug vs placebo): 0.30 | Survival OR ([1]; Full per-protocol population, Day 90): 2.74 | mRS OR ([1]; Full per-protocol population, Day 90, ordinal): 1.91 | Mortality OR ([1]; PP population, N 77 (36/41), logistic regression): 2.75 | mRS 0-6 OR ([1]; PP population, N 77 (36/41), ordinal logistic regression): 1.91 | Mortality OR [1, 7]: 2.96 | mRS 0-6 OR [1, 7]: 2.31 | Difference in 90 Day Score of mRS 0-4 [1]: 14.6% | Difference in 90 Day Score of mRS 0-4 ([1]; listed as Test Drug): +14.6% | "zero effect" lesion size ([1]; by extrapolation, mRS shift OR of 1): about 100 cc | EQ-5D median difference between drug and placebo ([1]; full and ≤70 per-protocol populations, all time points): greater than 0.12 | Mortality with DC ([1]; number of deaths among 13 individuals receiving decompressive craniectomy): 2 | Mortality without DC ([1]; number of deaths among 28 individuals with no decompressive craniectomy): 5 | Mortality 90 days (includes 30 day values) ([1]; number of deaths among 41 individuals, per protocol): 7 | Mortality 30 days ([1]; number of deaths among 41 individuals, per protocol, 30 days following treatment): 6 | effect size at the mRS 0-3 dichotomization [1, 8]: 14% | effect size at the mRS 0-4 dichotomization [1, 8]: 22% | Adjudicated mortality due to edema ([1]; per-protocol group (1/41), placebo 22.22% (8/36), p=0.01): 2.44% | 90 Day Score of mRS 0-4 ([1]; percentage of patients with mRS 0-4 at 90 days after stroke): 61.4% | median mRS ([1]; treated group, median of 5 in the placebo): 4 | EQ-5D Median Difference [1, 9]: 0.29 | Survival OR [1, 9]: 3.47 | mRS OR [1, 9]: 2.33 | EQ-5D Median Difference [1, 10]: 0.30 | Survival OR [1, 10]: 4.00 | mRS OR [1, 10]: 2.24 | EQ-5D Median Difference ([1]; ≤70 per-protocol population, 90 Days): 0.29 | Survival OR [1, 11]: 3.88 | mRS OR [1, 11]: 2.49 | MMP-9 Average [2]: 193.18 ng/mL | lab confirmed blood glucose level [3]: 51 mg/dL | evolution (growth) of edema from baseline to 72 hours ([4]; 7 drug subjects with lesional blood, MRI volume, placebo 10.28-fold): 2.14 fold | mean Glasgow Coma Scale Extended score (GOSE) ([4]; at 180 days, placebo 6.17): 6 | drug-related effects in non-lesioned subjects or areas of the brain without a lesion ([4]; in vivo): No drug-related effects were detected
